Experimental data taken from US20080026996A1, “Selective Vpac2 Receptor Reptide Agonists” (ELI LILLY AND COMPANY, priority 2004, published 2008).
Where a SMILES comes first, the peptide text is derived from it. Where no end group is shown, it is not given here. The star is where a group is joined. Hexanoyl = CCCCCC(=O)*

Tests used:
[1] = biological target: T1, human PAC1 (Homo sapiens, UniProt P41586); assay: Filter binding assay, membranes of cells transiently transfected with human PAC1, 125I-labeled PACAP-27 tracer (Table 2); design: expressed in transfected cells; details: read-out: Human PAC1 Receptor Binding
T1 sequence (P41586 21-468): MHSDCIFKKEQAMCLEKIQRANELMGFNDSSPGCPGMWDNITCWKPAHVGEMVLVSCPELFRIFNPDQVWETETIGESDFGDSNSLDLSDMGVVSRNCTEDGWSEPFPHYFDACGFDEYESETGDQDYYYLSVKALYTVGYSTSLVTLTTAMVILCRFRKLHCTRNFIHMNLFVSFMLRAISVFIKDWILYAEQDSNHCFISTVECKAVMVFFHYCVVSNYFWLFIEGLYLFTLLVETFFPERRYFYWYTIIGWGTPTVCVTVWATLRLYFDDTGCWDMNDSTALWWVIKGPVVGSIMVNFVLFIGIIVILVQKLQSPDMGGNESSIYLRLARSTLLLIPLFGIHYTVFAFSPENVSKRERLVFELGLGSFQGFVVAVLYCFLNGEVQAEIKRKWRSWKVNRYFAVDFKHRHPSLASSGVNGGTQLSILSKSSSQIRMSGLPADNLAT
Procedure: For this assay, the solutions and equipment include:
Presoak solution: 0.5% Polyethyleneamine in Aqua dest.
Buffer for flushing filter plates: 25 mM HEPES pH 7.4
Blocking buffer: 25 mM HEPES pH 7.4; 0.2% protease free BSA
Assay buffer: 25 mM HEPES pH 7.4; 0.5% protease free BSA
Dilution and assay plate: PS-Microplate, U form
Filtration Plate Multiscreen FB Opaque Plate; […] Type B Glasfiber filter
In order to prepare the filter plates, aspirate the presoak solution by vacuum filtration. Flush the plates twice with 200 μL flush buffer. Add 200 μL blocking buffer to the filter plate. The filter plate is then incubated […] for 1 hour at room temperature.
Fill the assay plate with 25 μL assay buffer, 25 μL membranes (2.5 μg) suspended in assay buffer, 25 μL compound (agonist) in assay buffer, and 25 μL tracer (about 40000 cpm) in assay buffer. Incubate the filled plate for 1 hour with shaking.
Conduct the transfer from assay plate to filter plate. Aspirate the blocking buffer by vacuum filtration and wash two times with flush buffer. Transfer 90 μL from the assay plate to the filter plate. Aspirate the 90 μL transferred from assay plate and wash three times with 200 μL flush buffer. Remove the plastic support. Dry for 1 hour at 60° C. Add 30 μL Microscint. Perform the count.

[2] = biological target: T2, human VPAC2 (Homo sapiens, UniProt P41587); assay: Filter binding assay, membranes of stable VPAC2 cell line, 125I-labeled VIP tracer (Table 2); details: read-out: Human VPAC2 Receptor Binding
T2 construct: expressed in transfected cells
T2 sequence (P41587 24-438): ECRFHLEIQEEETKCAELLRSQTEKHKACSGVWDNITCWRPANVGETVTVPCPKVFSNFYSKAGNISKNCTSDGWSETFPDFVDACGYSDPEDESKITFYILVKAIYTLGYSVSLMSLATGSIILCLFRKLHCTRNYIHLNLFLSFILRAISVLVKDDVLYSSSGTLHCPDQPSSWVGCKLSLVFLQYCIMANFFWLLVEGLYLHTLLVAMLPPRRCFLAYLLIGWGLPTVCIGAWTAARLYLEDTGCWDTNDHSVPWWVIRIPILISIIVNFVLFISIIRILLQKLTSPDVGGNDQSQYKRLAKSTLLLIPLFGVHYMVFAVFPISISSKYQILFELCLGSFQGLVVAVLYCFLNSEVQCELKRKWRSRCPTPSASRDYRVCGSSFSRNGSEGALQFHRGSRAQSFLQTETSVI
Procedure, shortened: (§1)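 Radioligand displacement was measured with 2.5 μg membrane protein per well and roughly 40000 cpm of iodinated tracer. After a 1-hour incubation, bound and free label were separated on BSA-blocked glass-fibre filters and quantified by scintillation.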

[3] = biological target: T3, human VPAC1 (Homo sapiens, UniProt P32241); assay: Filter binding assay, membranes of cells transiently transfected with human VPAC1, 125I-labeled VIP tracer (Table 2); design: expressed in transfected cells; details: read-out: Human VPAC1 Receptor Binding
T3 sequence (P32241 31-457): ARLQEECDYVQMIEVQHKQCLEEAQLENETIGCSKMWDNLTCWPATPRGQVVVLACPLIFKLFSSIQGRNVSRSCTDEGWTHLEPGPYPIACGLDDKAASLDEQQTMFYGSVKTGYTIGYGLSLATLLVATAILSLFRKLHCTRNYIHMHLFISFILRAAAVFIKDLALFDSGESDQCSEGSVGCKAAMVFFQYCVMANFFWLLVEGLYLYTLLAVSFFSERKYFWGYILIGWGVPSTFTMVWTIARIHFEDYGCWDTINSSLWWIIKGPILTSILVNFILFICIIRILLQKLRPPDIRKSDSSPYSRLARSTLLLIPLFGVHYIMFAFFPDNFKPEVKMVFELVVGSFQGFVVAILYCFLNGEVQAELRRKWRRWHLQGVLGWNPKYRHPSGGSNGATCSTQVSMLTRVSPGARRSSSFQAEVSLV
Procedure, shortened: as §1

[4] = biological target: T2, human VPAC2; assay: Alpha screen cAMP in vitro potency, human VPAC2 receptor; type: cell-based; details: cAMP generation; single result from two analyses performed in a single run; read-out: Human VPAC2 Receptor: Alpha Screen EC50
Procedure: Alpha screen: Cells are washed in the culture flask once with PBS. Then, the cells are rinsed with enzyme free dissociation buffer. The dissociated cells are removed. The cells are then spun down and washed in stimulation buffer. For each data point, 50,000 cells suspended in stimulation buffer are used. To this buffer, Alpha screen acceptor beads are added along with the stimuli. This mixture is incubated for 60 minutes. Lysis buffer and Alpha screen donor beads are added and are incubated for 60 to 120 minutes. The Alpha screen signal (indicative of intracellular cAMP levels) is read in a suitable instrument (e.g. AlphaQuest from Perkin-Elmer). Steps including Alpha screen donor and acceptor beads are performed in reduced light.

Compound	IC50 [1] [nM]	IC50 [2] [nM]	IC50 [3] [nM]	EC50 [4] [nM]
CCCCCC(=O)N[C@@H](Cc1c[nH]cn1)C(=O)N[C@@H](CO)C(=O)N[C@@H](CC(=O)O)C(=O)N[C@@H](C)C(=O)N[C@H](C(=O)N[C@@H](Cc1ccccc1)C(=O)N[C@H](C(=O)N[C@@H](CC(=O)O)C(=O)N[C@@H](CC(N)=O)C(=O)N[C@@H](Cc1ccc(O)cc1)C(=O)N[C@H](C(=O)N[C@@H](CCCNC(=N)N)C(=O)N[C@@H](CC(C)C)C(=O)N[C@@H](CCCNC(=N)N)C(=O)N[C@@H](CCCCN)C(=O)N[C@@H](CCC(N)=O)C(=O)N[C@H](C(=O)N[C@@H](C)C(=O)N[C@@H](C)C(=O)N[C@@H](CCCCN)C(=O)N[C@@H](CCCCN)C(=O)N[C@@H](Cc1ccc(O)cc1)C(=O)N[C@@H](CC(C)C)C(=O)N[C@@H](CCC(N)=O)C(=O)N[C@@H](CO)C(=O)N[C@H](C(=O)N[C@@H](CCCCN)C(=O)N[C@@H](CCC(N)=O)C(=O)N[C@@H](CCCCN)C(=O)NCC(=O)NCC(=O)N1CCC[C@H]1C(=O)N[C@@H](CO)C(=O)N[C@@H](CO)C(=O)NCC(=O)N[C@@H](C)C(=O)N1CCC[C@H]1C(=O)N1CCC[C@H]1C(=O)N1CCC[C@H]1C(=O)N[C@@H](CO)C(=O)O)[C@@H](C)CC)C(C)C)[C@@H](C)O)[C@@H](C)O)C(C)C [Agonist P270] (Hexanoyl-HSDAVFTDNYTRLRKQVAAKKYLQSIKQKGGPSSGAPPPS-OH; C-terminus assumed)	436	0.15	110	0.13
CCCCCC(=O)N[C@@H](Cc1c[nH]cn1)C(=O)N[C@@H](CO)C(=O)N[C@@H](CC(=O)O)C(=O)N[C@@H](C)C(=O)N[C@H](C(=O)N[C@@H](Cc1ccccc1)C(=O)N[C@H](C(=O)N[C@@H](CC(=O)O)C(=O)N[C@@H](CC(N)=O)C(=O)N[C@@H](Cc1ccc(O)cc1)C(=O)N[C@H](C(=O)N[C@@H](CCCNC(=N)N)C(=O)N[C@@H](CC(C)C)C(=O)N[C@@H](CCCNC(=N)N)C(=O)N[C@@H](CCCCN)C(=O)N[C@@H](CCC(N)=O)C(=O)N[C@H](C(=O)N[C@@H](C)C(=O)N[C@@H](C)C(=O)N[C@@H](CCCCN)C(=O)N[C@@H](CCCCN)C(=O)N[C@@H](Cc1ccc(O)cc1)C(=O)N[C@@H](CC(C)C)C(=O)N[C@@H](CCC(N)=O)C(=O)N[C@@H](CO)C(=O)N[C@H](C(=O)N[C@@H](CCCCN)C(=O)N[C@@H](CC(N)=O)C(=O)NCC(=O)N[C@@H](CCCNC(=N)N)C(=O)N1CCC[C@H]1C(=O)N[C@@H](CO)C(=O)N[C@@H](CO)C(=O)NCC(=O)N[C@@H](C)C(=O)N1CCC[C@H]1C(=O)N1CCC[C@H]1C(=O)N1CCC[C@H]1C(=O)N[C@@H](CO)C(=O)O)[C@@H](C)CC)C(C)C)[C@@H](C)O)[C@@H](C)O)C(C)C [Agonist P271] (Hexanoyl-HSDAVFTDNYTRLRKQVAAKKYLQSIKNGRPSSGAPPPS-OH; C-terminus assumed)	352	0.14	67.6	0.12
Hexanoyl-HSDAVFTDNYTKLKKQVAAKKYLQSIKNKKYGGPSSGAPPPS [Agonist P103]	333	0.08	228	0.12
Hexanoyl-HSDAVFTDNYTRLKAQVAAKKYLQSIKNKRYGGPSSGAPPPS [Agonist P141]	658	0.64	25.9	0.72
Hexanoyl-HSDAVFTDNYTRLLAKLALQKYLQSIKNKRYGGPSSGAPPPC [Agonist P164]	9370	2.46	> 3000	0.11
Hexanoyl-HSDAVFTDNYTRLLAKVALQKYLQSIKNKRYGGPSSGAPPPS [Agonist P196]	> 25000	0.85	453	0.23
Hexanoyl-HSDAVFTDNYTRLLAQLALQKYLQSIKNKRYGGPSSGAPPPS [Agonist P195]	139	2.34	> 3000	0.25
Hexanoyl-HSDAVFTDNYTRLRKQVAAKKFLQSIKNKRYGGPSSGAPPPS [Agonist P130]	444	0.43	233	0.77
Hexanoyl-HSDAVFTDNYTRLRKQVAAKKWLQSIKNKRYGGPSSGAPPPS [Agonist P129]	678	0.38	462	0.49
Hexanoyl-HSDAVFTDNYTRLRKQVAAKKYLQFIKNKRYGGPSSGAPPPS [Agonist P112]	164	0.49	193	0.16
Hexanoyl-HSDAVFTDNYTRLRKQVAAKKYLQIIKNKRYGGPSSGAPPPS [Agonist P113]	189	0.69	293	0.26
Hexanoyl-HSDAVFTDNYTRLRKQVAAKKYLQLIKNKRYGGPSSGAPPPS [Agonist P114]	188	0.56	171	0.14
Hexanoyl-HSDAVFTDNYTRLRKQVAAKKYLQNIKNKRYGGPSSGAPPPS [Agonist P125]	300	0.19	179	0.14
Hexanoyl-HSDAVFTDNYTRLRKQVAAKKYLQQIKNKRYGGPSSGAPPPS [Agonist P124]	264	0.2	211	0.09
Hexanoyl-HSDAVFTDNYTRLRKQVAAKKYLQSIKNKKGGPSSGAPPPS [Agonist P121]	253	0.19	169	0.1
Hexanoyl-HSDAVFTDNYTRLRKQVAAKKYLQSIKNKRGGPSSGAPPPS [Agonist P123]	265	0.26	166	0.12
Hexanoyl-HSDAVFTDNYTRLRKQVAAKKYLQSIKNSRGGPSSGAPPPS [Agonist P122]	304	0.17	77.6	0.14
Hexanoyl-HSDAVFTDNYTRLRKQVAAKKYLQSLKNKRYGGPSSGAPPPS [Agonist P107]	225	0.16	122	0.12
Hexanoyl-HSDAVFTDNYTRLRKQVAAKKYLQSTKNKRYGGPSSGAPPPS [Agonist P108]	486	0.45	332	0.27
Hexanoyl-HSDAVFTDNYTRLRKQVAAKKYLQSVKNKRYGGPSSGAPPPS [Agonist P109]	257	0.11	274	0.22
